Results taken from patent publication US20210024483A1, “HETEROCYLCOALKENYL DERIVATIVES USEFUL AS AGONISTS OF THE GPR120 AND / OR GPR40” (Janssen Pharmaceutica NV, priority 2018, published 2021).
pEC50: −log10 of the molar value.

Tests used:
GPR40 = GPR40 (UniProt O14842); test: GPR40 Calcium Flux Assay; assay type: cell-based; details: transfected HEK293 cells stably expressing human or rat GPR40; species not given
Procedure: Biological Example 3: In Vitro Assay
Compounds were tested in a calcium flux assay using transfected HEK293 cells stably expressing either human GPR40 or rat GPR40. Human GPR40 expressing cells were cultured in DMEM-High Glucose media supplemented with 10% fetal bovine serum, 1×L-Glutamine, 1× Penicillin/Streptomycin and 500 μg/mL G418. Rat GPR40 expressing cells were cultured in DMEM-High Glucose media supplemented with 10% fetal bovine serum and 1 μg/mL puromycin. Cells were plated into poly-D-lysine coated 384-well plates and cultured overnight in a 37° C. humidified tissue culture incubator under 5% CO2/90% O2 atmosphere.
On the day of the experiment, the culture media was replaced with assay buffer (HBSS, 20 mM HEPES, 0.1% BSA) and the cells incubated at 37° C. for 1 h. Calcium-sensitive fluorescent dye (Fluo 8 No-Wash Calcium Dye, ABD Bioquest) was then added and the cells incubated for another 30 min at 37° C. followed by 15 min at room temperature while protected from the light. The cell plate and a plate of diluted compounds of Formula (I) were loaded into a fluorescent plate reader that added compounds onto the cells while measuring the fluorescence intensity of each well. The plate reader recorded fluorescence intensity at 1 second intervals for 8 min and provided the data for analysis in an Excel format. EC50 values were calculated using Prism (GraphPad) software.

[1] = target: T1, Human GPR120 short form (short splice variant, NM_001195755.1) (Homo sapiens, UniProt Q5NUL3); test: Human GPR120 Calcium Flux Assay; assay type: cell-based; details: HEK-293 cells, 4200 cells/well, read-out: Human GPR120 Calcium Flux Assay Procedure B EC50
T1 construct: expressed in transfected cells; host or cells: HEK293
T1 sequence (Q5NUL3 1-361): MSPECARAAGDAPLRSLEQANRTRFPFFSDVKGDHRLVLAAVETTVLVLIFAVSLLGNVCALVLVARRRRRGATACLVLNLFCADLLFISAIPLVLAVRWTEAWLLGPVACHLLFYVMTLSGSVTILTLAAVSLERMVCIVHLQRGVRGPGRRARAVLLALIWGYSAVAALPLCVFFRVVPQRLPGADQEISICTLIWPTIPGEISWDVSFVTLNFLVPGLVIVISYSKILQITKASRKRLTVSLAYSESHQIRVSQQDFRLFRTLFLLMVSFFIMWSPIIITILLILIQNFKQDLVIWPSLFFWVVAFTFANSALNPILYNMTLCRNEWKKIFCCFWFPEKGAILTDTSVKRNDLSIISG
From the text: In Vitro Assay: Human GPR120 in Calcium Flux Assay
This in vitro assay serves to assess test compound agonist activity against the short splice variant (SVS with Accession number NM_001195755.1 confirmed by sequencing data) of the GPR120 receptor. The Human Short splice variant #2 (NM_001195755.1) is missing an in-frame coding exon compared to variant 1 (the Human Long splice variant NM_181745.3), resulting in a shorter isoform (GPR120-S) lacking a 16 aa protein segment compared to isoform GPR120-L. The assay platform utilizes HEK-293 cells stably transfected to express the Human GPR120 short form. These cells are first loaded with the Ca^+2 sensitive dye, Fluo-4 NW. Upon stimulation, intracellular released Ca^+2 can bind to the dye and alter its fluorescence intensity. This increase in fluorescence signal, and thus the flux in intracellular [Ca^2+], is detected and quantitated by fluorescence imaging using a FLIPR reader. The effect of the agonist is measured as a function of concentration and used to calculate an EC50 based upon a response curve. […]
In this procedure 4200 cells/well were employed.
A Human GPR120 clone (Genbank accession number NM_001195755.1) was placed into the pcDNA3.1 mammalian expression vector carrying the neomycin resistance gene. A stable mammalian cell was generated by placing the above clone into a HEK293 background. Clonal cells responding to long chain fatty acids had expression levels of GPR120 confirmed by RT-qPCR. Human HEK-GPR120 cells were cultured in Dulbecco's Modified Eagle's Medium (DMEM)/F12 medium supplemented with 10% fetal bovine serum (FBS), 1% L-Glutamine and 1% penicillin/streptomycin and 0.5 mg/ml G-418. Cells were split 2 times a week to keep the cells in the log-phase growth.
In preparation for the assay, HEK cells stably transfected with Human GPR120 (2.5K cells per well in 25 uL growth medium) were seeded into 384-well plates and then incubated overnight (37° C., 5% CO2). The next day, the media was changed to 20 μL assay buffer and the cell starved for 1 h at 37° C. The dye loading solution (2× dye) was prepared using 10 mL assay buffer, 100 μL of 250 mM probenecid, 1 bottle of Component A, and 20 μl of dye in DMSO. Twenty μL of the 2× dye loading buffer was then added to each well. The plates were incubated at 37° C. for 30 min, then at room temperature for an additional 15 minutes, before performing the assay on FLIPR.
The assay was performed on a FLIPR plate reader using the following parameters. Baseline was read for 10 seconds at 1 sec intervals. The program was set to transfer 10 μL of ligand from compound plate to cell plate after baseline reading. Aspiration was executed at: 10 μL/sec speed, 4.6 μL height; Dispensing was executed at: 30 μL/sec speed, 45 μL height. After compound addition, each well was read for 300 sec, with measurements collected at 1 sec intervals.
The kinetic data from the FLIPR was based upon a 5 minute window for data collection. The fluorescence of each sample well was used for individual calculations of a normalized RFU value, which was defined as maximum response minus the minimum response. The normalized fluorescence reading (RFU) was calculated as follows:
The data were fitted to a sigmoidal dose-response curve with a variable Hill slope (<2) using nonlinear regression with GraphPad Prism 5.0 to calculate the EC50 values. The Fitting Equation was: Y=Bottom+(Top−Bottom)/(1+10^((Log EC50−X)*HillSlope)), where X is the log of the concentration and Y is the response.

| Structure (SMILES) | pEC50 (GPR40) | pEC50 [1] |
| --- | --- | --- |
| C=C(C1=C(COc2ccc(CCC(=O)O)c(C(F)(F)F)c2)COCC1)c1ccc(C(F)(F)F)cc1 [compound 705] | 7.14 | < 5.30 |
| C=C(C1=C(COc2ccc(CCC(=O)O)cc2)COCC1)c1ccccc1 [compound 699] | 5.76 | < 5.30 |
| O=C(O)CCc1ccc(OCC2=C(c3ccc(OC(F)(F)F)cc3)CCOC2)cc1C(F)(F)F [compound 686] | 6.13 | < 5.30 |
| O=C(O)CCc1ccc(OCC2=C(Cc3ccc(Cl)cc3)CCOC2)cc1C(F)(F)F [compound 696] | 6.66 | < 5.30 |
| COc1ccc(CC2=C(COc3ccc(CCC(=O)O)cc3)COCC2)cc1 [compound 697] | ~4.72 | < 5.30 |
| C=C(C1=C(COc2ccc(CCC(=O)O)cc2)COCC1)c1ccc(F)cc1 [compound 702] | 5.81 | < 5.30 |
| Cc1ccc(CC2=C(COc3ccc(CCC(=O)O)cc3)COCC2)cc1 [compound 691] | 5.44 | 5.62 |
| O=C(O)CCc1ccc(OCC2=C(C3CCCC3)COC2)cc1 [compound 632] | 5.59 | 6.37 |
| Cc1ccc(C2=C(COc3ccc(CCC(=O)O)c(C(F)(F)F)c3)COCC2)cc1F [compound 685] | 6.08 | 6.01 |
| C=C(C1=C(COc2ccc(CCC(=O)O)c(C(F)(F)F)c2)COCC1)c1ccccc1Cl [compound 706] | 7.42 | < 5.30 |
| C=C(C1=C(COc2ccc(CCC(=O)O)c(C(F)(F)F)c2)COCC1)c1ccccc1 [compound 687] | 7.27 | < 5.30 |
| C=C(C1=C(COc2ccc(CCC(=O)O)c(C(F)(F)F)c2)COCC1)c1ccc(F)cc1 [compound 703] | 7.17 | < 5.30 |
| CC(C1=C(COc2ccc(CCC(=O)O)c(C(F)(F)F)c2)COCC1)c1ccccc1 (stereo not drawn) [compound 701] | 6.84 | < 5.30 |

More lines, now with the values ahead:

| pEC50 (GPR40) | pEC50 [1] | Structure (SMILES) |
| --- | --- | --- |
| 5.68 | 5.94 | O=C(O)CCc1ccc(OCC2=C(C3C=CCC3)CCOC2)cc1 (stereo not drawn) [compound 740] |
| < 5.00 | 5.74 | CC(C)CC1=C(COc2c(F)cc(CCC(=O)O)cc2F)COCC1 [compound 733] |
| < 5.00 | 6.21 | O=C(O)CCc1cc(F)c(OCC2=C(C3CCCC3)CCOC2)c(F)c1 [compound 736] |
| 5.85 | < 5.30 | O=C(O)CCc1ccc(OCC2=C(CC3CCCCC3)CCOC2)cc1C(F)(F)F [compound 718] |
| < 5.00 | 5.62 | O=C(O)CCc1cc(F)c(OCC2=C(Cc3ccc(Cl)cc3)CCOC2)c(F)c1 [compound 721] |
| 5.58 | 5.88 | O=C(O)CCc1ccc(OCC2=C(C3CCCC3)CCOCC2)cc1 [compound 780] |
| 5.64 | < 5.30 | O=C(O)CCc1ccc(OCC2=C(Cc3ccc(Cl)cc3)CCOC2)cc1Cl [compound 709] |
| 6.13 | 4.99 | CCC(C)C1=C(COc2ccc(CCC(=O)O)c(C(F)(F)F)c2)COCC1 (stereo not drawn) [compound 734] |
| 6.23 | 5.63 | O=C(O)CCc1ccc(OCC2=C(C3CCC3)CCOC2)cc1Cl [compound 725] |
| 5.84 | 6.34 | O=C(O)CCc1ccc(OCC2=C(C3CCCC3)COCC2)cc1 [compound 764] |
| 6.49 | 6.08 | CCCCC1=C(COc2ccc(CCC(=O)O)c(C(F)(F)F)c2)COCC1 [compound 707] |
| 6.88 | 5.88 | CC(C)CC1=C(COc2ccc(CCC(=O)O)c(C(F)(F)F)c2)COCC1 [compound 717] |
| < 5.00 | 5.72 | O=C(O)CCc1cc(F)c(OCC2=C(Cc3ccccc3)CCOC2)c(F)c1 [compound 714] |
| 6.31 | 5.66 | CC(C)C1=C(COc2ccc(CCC(=O)O)c(C(F)(F)F)c2)COCC1 [compound 735] |
